From patent US12415785B2, “Compound modulators of sting” (CTXT PTY LTD, priority 2019, dated 2025)

Legend:
Assay type in all cases: binding
human STING (WT) [1] = target: T1, human STING (WT) (Homo sapiens (Human), UniProt Q86WV6, H232R); experiment: Differential scanning fluorimetry (DSF), huSTING (WT); conditions: 2 μM protein, compound 100 μM, Tm with ligand minus Tm of protein alone (1% DMSO); for ΔTm at 100 µM: read-out: DSF huSTING (WT) ΔTm (° C.)
In short: (§1)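 Recombinant His-TEV-tagged human STING allelic variants expressed in E. coli and purified by IMAC. Thermal unfolding followed by dye fluorescence (excitation 490 nm, emission 570 nm) from 20° C. to 100° C. in 0.5° C. steps, in triplicate, with and without ligand; Tm taken from the transition inflection point.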

human STING (HAQ) = human STING (HAQ) (Homo sapiens, UniProt Q86WV6, G230A/H232R/R293Q); experiment: Differential scanning fluorimetry (DSF), huSTING (HAQ); conditions: 2 μM protein, compound 100 μM; Tm with ligand minus Tm of protein alone (1% DMSO); read-out: DSF huSTING (HAQ) ΔTm (° C.)
In short: as §1

human STING (WT) [2] = target: T1, human STING (WT); experiment: Surface plasmon resonance (SPR), STING (WT); conditions: biotinylated STING on streptavidin chip, 8° C.
Protocol: Biophysical experiments were performed with three different recombinant human STING protein variants designated according to allelic nomenclature of Yi et al., (2013). Codon optimized DNA sequences (for expression in Escherichia coli) encoding amino acid residues 149 to 345 (Swiss Prot Q86WV6) of human STING (WT), human STING (HAQ) and human STING (R232H) were synthesised by GenScript USA Inc (Piscataway, New Jersey, USA). These were ligated into a modified pET43a E. coli expression vector designed to encode N-terminal His tag followed by tobacco etch virus protease (TEV) cleavage site and a STING gene sequence. The resulting protein sequences for the three allelic variants are listed below:
Binding interactions of ligands with STING proteins were quantified using Surface Plasmon Resonance (SPR) with a minimally biotinylated STING protein immobilized on a streptavidin chip surface. […] Minimal biotinylation of purified huSTING proteins was performed using a previously described methodology (Chhabra 2012). Briefly, approximately 20 nmol of recombinant STING protein in 1×TBS buffer (25 mM Tris-HCl, pH 7.5, 150 mM NaCl, 5 mM DTT) was mixed with of EZ-Link™ Sulfo-NHS-LC-LC-Biotin (Thermofisher Scientific, cat #21338) at a molar ratio of 1 to 0.6 and incubated on ice for 2 hours. To remove any unreacted biotin reagent, protein/biotin mixture was passed through a Superdex 75 (10/300 GL) column equilibrated with 10 mM HEPES, pH7.4, 150 mM NaCl, 5 mM DTT, 5%[v/v] glycerol. A protein peak containing biotinylated huSTING protein was collected and stored in aliquots at −80° C.
Streptavidin was simultaneously immobilized in all four channels of a CM5 sensor chip docked in a Biacore instrument (either Biacore S200 or Biacore T200, GE Healthcare) as described previously (Zender 2013). Minimally biotinylated STING protein was captured onto a streptavidin coated chip surface at 8° C. in SPR binding buffer (50 mM HEPES, pH 7.4, 150 mM NaCl, 2%[v/v] DMSO) by gradually injecting in a single channel at a constant flow-rate of 2 μL/min until desired capture level was achieved, typically 3000 to 7000 RU (1 RU=1 pg/mm^2).
All binding experiments were performed at 8° C. in SPR binding buffer. To determine binding affinity, compound interaction with immobilized STING protein was analysed using dose-response experiments. Fresh 10 mM DMSO solutions of compound were diluted directly into SPR binding buffer typically to a concentration of 50 μM and then further diluted 2-fold or 3-fold aiming for either a 5- or 7-point concentration series range. Each ligand concentration series was injected at a constant flow rate of 60 μL/min with a 90 second association and a 180 second dissociation time. These were modified for compounds with longer residence times, so that curves could reach steady-state, or so that compound would be fully dissociated before the subsequent injection.
Scrubber 2 (www.biologic.com.au) was utilized for data processing, where signals were referenced against the blank surface (streptavidin+D-biotin) and further corrected for DMSO refractive index change and then “double-referenced” using a buffer-blank injection (Papalia 2006). Responses were fitted to either a 1:1 steady-state affinity model or a 1:1 kinetic model (that included a mass-transport component), available within Scrubber.

T1 sequence (Q86WV6 other isoform, or with tags, fused parts or gaps, stated change not applied): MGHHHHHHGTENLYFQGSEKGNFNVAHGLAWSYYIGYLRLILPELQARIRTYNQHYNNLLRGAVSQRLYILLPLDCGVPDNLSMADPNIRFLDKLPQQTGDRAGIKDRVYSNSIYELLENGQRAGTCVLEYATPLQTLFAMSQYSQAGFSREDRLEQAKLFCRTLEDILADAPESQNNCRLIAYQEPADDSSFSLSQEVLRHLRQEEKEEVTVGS
Sequence of human STING (HAQ) (Q86WV6 whole entry G230A/H232R/R293Q, looked up): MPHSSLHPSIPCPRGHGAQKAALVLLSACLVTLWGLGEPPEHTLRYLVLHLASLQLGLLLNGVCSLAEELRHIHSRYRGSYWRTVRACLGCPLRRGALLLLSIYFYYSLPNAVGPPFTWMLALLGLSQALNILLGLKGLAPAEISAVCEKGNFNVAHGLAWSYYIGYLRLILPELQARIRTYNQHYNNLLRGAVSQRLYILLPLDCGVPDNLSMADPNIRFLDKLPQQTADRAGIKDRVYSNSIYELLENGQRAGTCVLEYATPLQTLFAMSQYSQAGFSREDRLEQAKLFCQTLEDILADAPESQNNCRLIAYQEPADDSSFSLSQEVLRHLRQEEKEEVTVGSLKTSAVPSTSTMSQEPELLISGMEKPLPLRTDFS

Row | SMILES | ΔTm at 100 µM (human STING (WT) [1]) [°C] | ΔTm at 100 µM (human STING (HAQ)) [°C] | Kd (human STING (WT) [2]) [µM] | DSF huSTING (WT) ΔTm (° C.) (human STING (WT) [1]) [°C]
1 | COc1c(C(N)=O)ccc2c1nc(-c1ccc(Cl)cc1-c1n[nH]c(=O)o1)n2CCn1c(-c2ccc(Cl)cc2-c2n[nH]c(=O)o2)nc2c(OC)c(C(N)=O)ccc21 [Example 17, 1,1′-(Ethane-1,2-diyl)bis(2-(4-chloro-2-(5-oxo-4,5-dihydro-1,3,4-oxadiazol-2-yl)phenyl)-4-methoxy-1H-benzo[d]imidazole-5-carboxamide)] | 3.05 | 11.9 | 9.5 | 
2 | NC(=O)c1ccc2c(c1)nc(-c1ccccc1C(=O)O)n2CCn1c(-c2ccccc2C(=O)O)nc2cc(C(N)=O)ccc21 [Example 2, 2,2′-(Ethane-1,2-diylbis(5-carbamoyl-1H-benzo[d]imidazole-1,2-diyl))dibenzoic acid] | -6.94 | -3.48 | 80 | 
3 | COc1c(C(N)=O)ccc2c1nc(-c1c(F)cc(F)cc1C(=O)O)n2CCn1c(-c2c(F)cc(F)cc2C(=O)O)nc2c(OC)c(C(N)=O)ccc21 [Example 16, 2,2′-(Ethane-1,2-diylbis(5-carbamoyl-4-methoxy-1H-benzo[d]imidazole-1,2-diyl))bis(3,5-difluorobenzoic acid)] | 7.95 | 17.2 | 1.52 | 
4 | COc1c(C(N)=O)cc(F)c2c1nc(-c1c(F)cc(F)cc1C(=O)O)n2CCn1c(-c2c(F)cc(F)cc2C(=O)O)nc2c(OC)c(C(N)=O)cc(F)c21 [Example 18, 2,2′-(Ethane-1,2-diylbis(5-carbamoyl-7-fluoro-4-methoxy-1H-benzo[d]imidazole-1,2-diyl))bis(3,5-difluorobenzoic acid)] | 2.4 | 19.1 | 2.01 | 
5 | COc1c(C(N)=O)ccc2c1nc(-c1ccc(Cl)cc1C(=O)O)n2CCn1c(-c2ccc(Cl)cc2C(=O)O)nc2c(OC)c(C(N)=O)ccc21 [Example 1, 6,6′-(Ethane-1,2-diylbis(5-carbamoyl-4-methoxy-1H-benzo[d]imidazole-1,2-diyl))bis(3-chlorobenzoic acid)] | 5.07 | 9.44 | 200 | 
6 | COc1c(C(N)=O)ccc2c1nc(-c1ccc(Cl)cc1-c1nn[nH]n1)n2CCn1c(-c2ccc(Cl)cc2-c2nn[nH]n2)nc2c(OC)c(C(N)=O)ccc21 [Example 9, 1,1′-(Ethane-1,2-diyl)bis(2-(4-chloro-2-(2H-tetrazol-5-yl)phenyl)-4-methoxy-1H-benzo[d]imidazole-5-carboxamide)] | 5.06 | 11.3 | 40 | 
7 | COc1c(C(N)=O)ccc2c1nc(-c1c(I)cccc1C(=O)O)n2CCn1c(-c2c(I)cccc2C(=O)O)nc2c(OC)c(C(N)=O)ccc21 (single isomer, unassigned) [Example 19.1, 2,2′-(Ethane-1,2-diylbis(5-carbamoyl-4-methoxy-1H-benzo[d]imidazole-1,2-diyl))bis(3-iodobenzoic acid)] |  | 31.7 | 0.034 | 19.29

Continued, values first:

Row | ΔTm at 100 µM (human STING (WT) [1]) [°C] | ΔTm at 100 µM (human STING (HAQ)) [°C] | Kd (human STING (WT) [2]) [µM] | DSF huSTING (WT) ΔTm (° C.) (human STING (WT) [1]) [°C] | SMILES
8 | -3 | 3.69 | 96 |  | COc1c(C(N)=O)cc(F)c2c1nc(-c1ccc(Cl)cc1C(=O)O)n2CCn1c(-c2ccc(Cl)cc2C(=O)O)nc2c(OC)c(C(N)=O)cc(F)c21 [Example 20, 6,6′-(Ethane-1,2-diylbis(5-carbamoyl-7-fluoro-4-methoxy-1H-benzo[d]imidazole-1,2-diyl))bis(3-chlorobenzoic acid)]
9 | 15 | 29.2 | 0.043 |  | COc1c(C(N)=O)ccc2c1nc(-c1c(Cl)cccc1-c1nn[nH]n1)n2CCn1c(-c2c(Cl)cccc2-c2nn[nH]n2)nc2c(OC)c(C(N)=O)ccc21 (single isomer, unassigned) [Example 23, 1,1′-(Ethane-1,2-diyl)bis(2-(2-chloro-6-(2H-tetrazol-5-yl)phenyl)-4-methoxy-1H-benzo[d]imidazole-5-carboxamide)]
10 | -2.51 | 1.28 | > 100 |  | COc1c(C(N)=O)ccc2c1nc(-c1ccc(Cl)cc1C(=O)O)n2CCCn1c(-c2ccc(Cl)cc2C(=O)O)nc2c(OC)c(C(N)=O)ccc21 [Example 35, 6,6′-(Propane-1,3-diylbis(5-carbamoyl-4-methoxy-1H-benzo[d]imidazole-1,2-diyl))bis(3-chlorobenzoic acid)]
11 | 10.2 | 21.3 | 0.755 |  | COc1c(C(N)=O)ccc2c1nc(-c1c(F)cccc1-c1n[nH]c(=O)o1)n2CCn1c(-c2c(F)cccc2-c2n[nH]c(=O)o2)nc2c(OC)c(C(N)=O)ccc21 [Example 49, 1,1′-(Ethane-1,2-diyl)bis(2-(2-fluoro-6-(5-oxo-4,5-dihydro-1,3,4-oxadiazol-2-yl)phenyl)-4-methoxy-1H-benzo[d]imidazole-5-carboxamide)]
12 | 1.09 | 4.52 | 200 |  | COc1ccc(-c2nc3c(OC)c(C(N)=O)ccc3n2CCn2c(-c3ccc(OC)cc3C(=O)O)nc3c(OC)c(C(N)=O)ccc32)c(C(=O)O)c1 [Example 41, 6,6′-(Ethane-1,2-diylbis(5-carbamoyl-4-methoxy-1H-benzo[d]imidazole-1,2-diyl))bis(3-methoxybenzoic acid)]
13 | -3.16 | -0.08 | 102 |  | COc1c(C(N)=O)ccc2c1nc(-c1ccc(Cl)cc1-c1cn[nH]n1)n2CCn1c(-c2ccc(Cl)cc2-c2cn[nH]n2)nc2c(OC)c(C(N)=O)ccc21 [Example 24, 1,1′-(Ethane-1,2-diyl)bis(2-(4-chloro-2-(2H-1,2,3-triazol-4-yl)phenyl)-4-methoxy-1H-benzo[d]imidazole-5-carboxamide)]
14 | -2.39 | 0.49 | 74 |  | COc1c(C(N)=O)ccc2c1nc(-c1ccc(Cl)cc1C(=O)O)n2C/C=C/Cn1c(-c2ccc(Cl)cc2C(=O)O)nc2c(OC)c(C(N)=O)ccc21 [Example 34, (E)-6,6′-(But-2-ene-1,4-diylbis(5-carbamoyl-4-methoxy-1H-benzo[d]imidazole-1,2-diyl))bis(3-chlorobenzoic acid)]
15 | 0.18 | 3.98 | 88 |  | COc1c(C(N)=O)ccc2c1nc(-c1ncc(Cl)cc1C(=O)O)n2CCn1c(-c2ncc(Cl)cc2C(=O)O)nc2c(OC)c(C(N)=O)ccc21 [Example 31, 2,2′-(Ethane-1,2-diylbis(5-carbamoyl-4-methoxy-1H-benzo[d]imidazole-1,2-diyl))bis(5-chloronicotinic acid)]
16 | 14.4 | 28.6 | 0.413 |  | COc1c(C(N)=O)ccc2c1nc(-c1c(F)cc(Cl)cc1-c1nn[nH]n1)n2CCn1c(-c2c(F)cc(Cl)cc2-c2nn[nH]n2)nc2c(OC)c(C(N)=O)ccc21 [Example 46, 1,1′-(Ethane-1,2-diyl)bis(2-(4-chloro-2-fluoro-6-(2H-tetrazol-5-yl)phenyl)-4-methoxy-1H-benzo[d]imidazole-5-carboxamide)]
